# Experimental data taken from paper PMC10535842, “Novel Thiazole-Based SIRT2 Inhibitors Discovered via Molecular Modelling Studies and Enzymatic Assays” (Pharmaceuticals, 2023).
# Values joined by “and” are separate entries in the source; they are usually repeats but may differ in a detail not shown here. Identical values can stand only once.
# Molecular target: T1, recombinant human HSP70 (Homo sapiens, UniProt P0DMV8)
# T1 construct: made in house; host or cells: E. coli BL21 (DE3)
# Assay: HSP70 ATPase catalytic activity, Malachite green assay
# Assay type: biochemical
# Settings: 300 μM final concentration; read-out: percentage of inhibition of HSP70 ATPase activity
# Experimental: The impact of selected molecules on the ATPase catalytic activity of an in-house produced recombinant human HSP70 protein was determined using the Malachite green assay, incubating the recombinant protein with ATP in the presence or absence of different compounds (300 μM final concentration). The percentage of inhibition exerted by the selected compounds on the ATPase activity was as follow: 1a, 49 ± 2%; 2a, 40 ± 1%; 3a, 44 ± 4%; 4a, 20 ± 1%; 5a, 19 ± 1%; 6a, 37 ± 1%; 7a, 47 ± 1%.
# The recombinant human Hsp70 protein was produced in BL21 (DE3) E. coli transformed with the pET-6xHis/hHSP70 plasmid containing the coding sequence for human HSP70 (hHSPA1A gene, NM_005345.6; purchased from Vector Builder, Vector ID VB210930). This vector allowed for producing an N-terminal 6xHis tag fusion HSP70 protein.
# BL21 cells containing the vector were initially grown in Luria−Bertani medium at 37 °C (Merck, Milan, Italy) with 200 μg/mL ampicillin until the culture reached an OD600 of 0.5. The 6xHis/hHSP70 fusion protein was expressed by adding isopropyl-β-d-thiogalactopyranoside (final concentration of 0.2 mM) and incubating the bacteria culture at 37 °C for 2 h. The cells were harvested by centrifugation and then lysed by sonication in 20 mM Tris-HCl, 250 mM KCl, and 10 mM MgCl2 pH 7.4; after the addition of Triton X-100 to a final concentration of 1% and incubation for 30 min at 4 °C, the lysates were centrifugated at 10,000× g for 15 min. The HSP70 protein was purified by affinity chromatography using His GraviTrap TALON columns (Euroclone, Milan, Italy). Briefly, after loading the lysate, the resin was washed twice with 20 mM Tris-HCl, 250 mM KCl, and 10 mM MgCl2 pH 7.4 and twice with the same buffer containing 10 mM of imidazole. The elution of the recombinant protein was obtained with 150 mM imidazole, pH 7.4. Imidazole was removed from the recombinant protein through overnight dialysis using a dialysis tubing membrane (Merck KGaA, Frankfurter Strasse 250 Darmstadt, Germany) and the protein was concentrated using a Centricon (Merck Millipore, 11 Avenida Norte Bis No. 513, San Salvador, El Salvador). The protein concentrations were determined using the Bradford assay (Bio-Rad Laboratories, Inc. Italy, Segrate) and the protein purity was monitored using SDS-PAGE.
# The ATPase catalytic activity of recombinant human HSP70 was measured with a colorimetric assay using the malachite green reagent. Briefly, 6 µM of HSP70 protein was incubated for 30 min at 37 °C with 5 mM ATP in 20 mM Tris-HCl, 250 mM KCl, 10 mM MgCl2, and 0.02%TritonX-100, pH 7.4. The released phosphates were quantified by adding the malachite green reagent to an aliquot of this incubation and the absorbance was recorded at 620 nm using a Clariostar plate reader. The effects of thiazoles-based molecules on the ATPase catalytic activity were measured by adding (or not) the different molecules to the incubation (at 300 µM final concentration). To correct for non-enzymatic hydrolysis of ATP and for a specific absorbance of molecules, the absorbance signal of identically treated samples lacking the HSP70 protein was subtracted.
# T1 sequence (P0DMV8 whole entry): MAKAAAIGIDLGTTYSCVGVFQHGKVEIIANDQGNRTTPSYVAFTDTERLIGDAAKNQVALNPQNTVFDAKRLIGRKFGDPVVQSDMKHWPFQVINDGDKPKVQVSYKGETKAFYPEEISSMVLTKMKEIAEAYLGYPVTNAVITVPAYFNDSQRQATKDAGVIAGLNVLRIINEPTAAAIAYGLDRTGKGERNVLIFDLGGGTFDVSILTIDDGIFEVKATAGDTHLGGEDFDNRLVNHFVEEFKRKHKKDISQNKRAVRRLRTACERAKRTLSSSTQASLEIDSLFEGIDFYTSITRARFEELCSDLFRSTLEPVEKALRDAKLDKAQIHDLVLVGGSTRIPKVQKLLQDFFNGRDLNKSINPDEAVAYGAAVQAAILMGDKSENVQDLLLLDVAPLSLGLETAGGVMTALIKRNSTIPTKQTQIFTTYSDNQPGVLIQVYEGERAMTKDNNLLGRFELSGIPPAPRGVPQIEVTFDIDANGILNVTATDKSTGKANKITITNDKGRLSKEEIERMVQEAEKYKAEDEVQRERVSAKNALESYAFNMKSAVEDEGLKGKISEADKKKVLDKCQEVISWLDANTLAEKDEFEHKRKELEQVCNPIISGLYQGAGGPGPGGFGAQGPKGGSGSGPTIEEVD
row,inhibition at 300 µM [%],Compound
1,40 ± 1,CCc1ccc(Nc2nc(-c3ccc(Cl)cc3)cs2)cc1SC [Compound 2a]
2,37 ± 1,O=C1Cc2cc(-c3csc(Nc4cccc(SC(F)(F)F)c4)n3)ccc2N1 [Compound 6a]
3,20 ± 1,CSc1cccc(Nc2nc(-c3ccc4c(c3)CC(=O)N4)cs2)c1 [Compound 4a]
4,44 ± 4,CSc1cccc(Nc2nc(-c3cccc(Cl)c3)cs2)c1 [Compound 3a]
5,47 ± 1,"CCn1c(=O)/c(=C2\Sc3ccccc3N2C)s/c1=C\c1ccccn1 [Compound 7a, YM-08]"
6,19 ± 1,CSc1cccc(Nc2nc(-c3ccc4[nH]c(=O)sc4c3)cs2)c1 [Compound 5a]

# System: SIRT2
# Assay: not given
# Settings: substrate RHKK(Ac)-AMC; read-out: SIRT2 IC50 (series B, compounds 27-111); cited from earlier work
row,Compound,IC50 [µM]
1,O=c1c2c3c(sc2ncn1Cc1cccc2cccnc12)CC(NCc1ccc(Cl)cc1)CC3 (centres unmarked) [Compound 47],1.27
2,O=c1c2c3c(sc2ncn1Cc1cccc2ccccc12)CC(NCCc1cccnc1)CC3 (centres unmarked) [Compound 79],9.57
3,O=c1c2c3c(sc2ncn1Cc1cccc2cccnc12)CC(NCc1ccco1)CC3 (centres unmarked) [Compound 30],4.16
4,COc1ccc2ccccc2c1Cn1cnc2sc3c(c2c1=O)CCC(NCc1cccnc1)C3 (centres unmarked) [Compound 63],1.45
5,COc1ccc2ccccc2c1Cn1cnc2sc3c(c2c1=O)CCC(NCc1c(C)noc1C)C3 (centres unmarked) [Compound 34],4
6,O=c1c2c3c(sc2ncn1Cc1ccc2ccccc2c1)CC(NCCc1cccnc1)CC3 (centres unmarked) [Compound 80],8.68
7,COc1ccccc1CNC1CCc2c(sc3ncn(Cc4ccccc4OC)c(=O)c23)C1 (centres unmarked) [Compound 53],9.59
8,COc1ccc(CNC2CCc3c(sc4ncn(Cc5ccc6ccccc6c5)c(=O)c34)C2)cn1 (centres unmarked) [Compound 76],10.2
9,COc1ccc(CNC2CCc3c(sc4ncn(Cc5c(OC)ccc6ccccc56)c(=O)c34)C2)cn1 (centres unmarked) [Compound 74],1.9
10,COc1ccc2ccccc2c1Cn1cnc2sc(CCNC3CCOCC3)c(C)c2c1=O [Compound 111],8.15
11,COc1cccc(CNC2CCc3c(sc4ncn(Cc5ccccc5OC)c(=O)c34)C2)c1 (centres unmarked) [Compound 55],13.4
12,COc1ccc2ccccc2c1Cn1cnc2sc3c(c2c1=O)CCC(NCc1c(C)nn(C)c1C)C3 (centres unmarked) [Compound 31],5.11
13,COc1ccc2ccccc2c1Cn1cnc2sc3c(c2c1=O)CCC(NCc1ccco1)C3 (centres unmarked) [Compound 27],5.24
14,COc1ccc2ccccc2c1Cn1cnc2sc3c(c2c1=O)CCC(NCCc1ccncc1)C3 (centres unmarked) [Compound 81],2.75
15,COc1ccccc1CNC1CCc2c(sc3ncn(Cc4cccc5cccnc45)c(=O)c23)C1 (centres unmarked) [Compound 52],5.61
16,COc1ccc2ccccc2c1Cn1cnc2sc3c(c2c1=O)CCC(NCc1cccc(F)c1)C3 (centres unmarked) [Compound 44],4.07
17,O=c1c2c3c(sc2ncn1Cc1ccc2ccccc2c1)CC(NCc1ccncc1)CC3 (centres unmarked) [Compound 68],3.14
18,O=c1c2c3c(sc2ncn1Cc1cccc2ccccc12)CC(NCC1CCCO1)CC3 (centres unmarked) [Compound 91],12.5
19,O=c1c2c3c(sc2ncn1Cc1cccc2cccnc12)CC(NCc1ccccc1)CC3 (centres unmarked) [Compound 42],2.5
20,O=c1c2c3c(sc2ncn1Cc1cccc2cccnc12)CC(NCc1ccncc1)CC3 (centres unmarked) [Compound 69],3.68
21,COc1ccc(Cn2cnc3sc4c(c3c2=O)CCC(NCc2c(C)noc2C)C4)c2ccccc12 (centres unmarked) [Compound 36],< 1
22,O=c1c2c3c(sc2ncn1Cc1cccc(-c2ccccc2)c1)CC(NCCC1CCCCC1)CC3 (centres unmarked) [Compound 96],3.74
23,O=c1c2c3c(sc2ncn1Cc1cccc(-c2ccccc2)c1)CC(NCCN1CCCC1)CC3 (centres unmarked) [Compound 104],3.78
24,COc1ccc2ccccc2c1Cn1cnc2sc3c(c2c1=O)CCC(NCC1CCCO1)C3 (centres unmarked) [Compound 90],1.9
25,COc1ccccc1CNC1CCc2c(sc3ncn(Cc4c(OC)ccc5ccccc45)c(=O)c23)C1 (centres unmarked) [Compound 50],2.24

# Molecular target: T2, recombinant SIRT2 (Homo sapiens, UniProt Q8IXJ6)
# T2 sequence (Q8IXJ6 1-389): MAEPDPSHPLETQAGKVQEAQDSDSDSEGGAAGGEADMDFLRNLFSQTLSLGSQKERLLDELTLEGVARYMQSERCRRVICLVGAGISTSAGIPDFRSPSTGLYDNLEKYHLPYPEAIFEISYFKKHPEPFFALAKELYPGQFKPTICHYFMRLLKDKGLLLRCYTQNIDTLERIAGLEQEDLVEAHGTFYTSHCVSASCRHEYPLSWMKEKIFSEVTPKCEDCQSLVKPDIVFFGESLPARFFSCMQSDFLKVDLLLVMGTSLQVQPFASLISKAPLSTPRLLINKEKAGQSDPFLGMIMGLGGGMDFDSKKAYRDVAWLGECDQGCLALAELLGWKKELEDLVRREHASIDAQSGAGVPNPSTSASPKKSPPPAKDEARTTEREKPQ
# Assay: SIRT2 deacetylase activity, recombinant SIRT2 incubated with acetylated peptide H3K9Ac and NAD+
# Assay type: biochemical
# Settings: 150 μM; recombinant protein
# Experimental: The effect of the in silico screened compounds on the SIRT2 deacetylase activity was evaluated thanks to the incubation of recombinant SIRT2 with an acetylated peptide (H3K9Ac, a peptide acetylated on Lys 9) and NAD^+.
% Inhibition SIRT2 (at 150 μM) [%],inhibition at 150 µM [%],Compound
100 ± 9,> 90,CCc1ccc(Nc2nc(-c3ccc(Cl)cc3)cs2)cc1SC [Compound 2a]
92 ± 7,> 90,O=C1Cc2cc(-c3csc(Nc4cccc(SC(F)(F)F)c4)n3)ccc2N1 [Compound 6a]
,100 ± 5,"Cc1cc(C)nc(SCC(=O)Nc2ncc(Cc3cccc4ccccc34)s2)n1 [Compound 10, SirReal2]"
,60 ± 5,CSc1cccc(Nc2nc(-c3ccc4c(c3)CC(=O)N4)cs2)c1 [Compound 4a]
,60 ± 8,CSc1cccc(Nc2nc(-c3cccc(Cl)c3)cs2)c1 [Compound 3a]
93 ± 9,> 90,"CCn1c(=O)/c(=C2\Sc3ccccc3N2C)s/c1=C\c1ccccn1 [Compound 7a, YM-08]"
,76 ± 9,CSc1cccc(Nc2nc(-c3ccc4[nH]c(=O)sc4c3)cs2)c1 [Compound 5a]

# Same assay, conditions: recombinant protein
row,IC50 [µM],Compound
1,17.3 ± 2,CCc1ccc(Nc2nc(-c3ccc(Cl)cc3)cs2)cc1SC [Compound 2a]
2,27.3 ± 4.7,O=C1Cc2cc(-c3csc(Nc4cccc(SC(F)(F)F)c4)n3)ccc2N1 [Compound 6a]
3,19.9 ± 2.1,"CCn1c(=O)/c(=C2\Sc3ccccc3N2C)s/c1=C\c1ccccn1 [Compound 7a, YM-08]"

# System: SIRT2
# Assay: not given
# Settings: HPLC assay, H3K9Ac; read-out: SIRT2 IC50 (series C, compounds 112-116); cited from earlier work
row,Compound,IC50 [µM]
1,O=C(On1nnc2ncccc21)c1c[nH]c2ccc(Br)cc12 [Compound 116],77.1

# System: SIRT2
# Assay: not given
# Settings: substrate ZMAL; read-out: SIRT2 IC50 (series A, compounds 1-26); cited from earlier work
row,Compound,IC50
1,Cc1cc(C)nc(SCC(=O)Nc2nnc(Cc3cccc4ccccc34)s2)n1 [Compound 25],1.89 µM
2,Cc1cc(C)nc(SCC(=O)Nc2ncc(Cc3ccc(Cl)cc3)s2)n1 [Compound 4],3.4 µM
3,Cc1cc(C)nc(SCC(=O)Nc2nnc(Cc3ccc(Br)cc3)s2)n1 [Compound 24],168 µM
4,Cc1cc(C)nc(SCC(=O)Nc2ncc(Cc3cccc4cc(Cl)ccc34)s2)n1 [Compound 16],0.48 µM
5,O=C(CSc1cccc(O)c1)Nc1ncc(Cc2cccc3ccccc23)s1 [Compound 7],143 µM
6,Cc1cc(C)nc(SC(C)C(=O)Nc2ncc(Cc3cccc4ccccc34)s2)n1 (centres unmarked) [Compound 13],0.26 µM
7,CCOc1ccc2nc(NC(=O)CSc3nc(C)cc(C)n3)sc2c1 [Compound 26],207 µM and > 167 µM
8,Cc1cc(C)cc(SCC(=O)Nc2ncc(Cc3cccc4ccccc34)s2)c1 [Compound 8],207 µM and > 167 µM
9,Cc1cc(C)nc(SC(C)C(=O)Nc2ncc(Cc3cccc4ccccc34)s2)n1 (centres unmarked) [Compound 12],9.77 µM
10,CCc1cc(CC)nc(SCC(=O)Nc2ncc(Cc3cccc4ccccc34)s2)n1 [Compound 18],45.6 µM
11,O=C(CSc1ncccn1)Nc1ncc(Cc2cccc3ccccc23)s1 [Compound 17],2.34 µM and 2.34 to 16.8 µM
12,Cc1cc(C)nc(SCC(=O)Nc2ncc(Cc3ccc(-c4ccccc4)cc3)s2)n1 [Compound 6],164 µM and > 167 µM
13,Cc1cc(C)nc(SCC(=O)Nc2ncc(Cc3c(C)ccc4ccccc34)s2)n1 [Compound 14],0.31 µM
14,Cc1cccc(Cc2cnc(NC(=O)CSc3nc(C)cc(C)n3)s2)c1 [Compound 3],1.64 µM
15,Cc1nc(SCC(=O)Nc2ncc(Cc3cccc4ccccc34)s2)nc(C)c1C [Compound 19],15 µM
16,Cc1cc(C)nc(SCC(=O)Nc2ncc(C(=O)Nc3cccc4ccccc34)s2)n1 [Compound 9],33 µM
17,CCOc1cccc(Cc2cnc(NC(=O)CSc3nc(C)cc(C)n3)s2)c1 [Compound 5],1.33 µM
18,Cc1cc(C)nc(SCC(=O)Nc2nnc(Cc3ccc(Cl)cc3)s2)n1 [Compound 23],30.9 µM
19,Cc1cc(C)nc(SCC(=O)Nc2ncc(Cc3cccc4ccc(Br)cc34)s2)n1 [Compound 15],0.21 µM
20,CCCc1cc(O)nc(SCC(=O)Nc2ncc(Cc3cccc4ccccc34)s2)n1 [Compound 21],127 µM
